Measured values taken from patent US20220232861A1, “ZINC COMPOUNDS IN FOOD IMMERSION APPLICATIONS” (SAFE FOODS CORPORATION, priority 2019, published 2022).
Like-named read-outs stand apart in the source and are kept apart here.

How the values were obtained:
Enterobacteriaceae [1] = settings: Example 4; for Enterobacteriaceae: drums dipped 10 s, drip 60 s, control 4.9; for EB analysis result versus control, in words: single treatments: 500 ppm zinc sulfate only (samples 6-10) or sulfuric acid pH 1.2 or less
Experimental: (§6) All rinsate samples collected were placed in a refrigerator overnight. The samples were analyzed for 3M Aerobic Plate Count (APC) Petrifilm™ (AOAC Official Method 990.12), and Enterobacteriaceae (EB) Petrifilm™ (AOAC Official Method 2003.01). The samples were recorded as counts, which were then converted to log10 CFU/mL for statistical analysis of the means.

Aerobic plate count [2] = settings: Example 4; for Aerobic plate count: drums dipped 10 s, drip 60 s, control 7.9; for APC result versus control, in words: single treatments: 500 ppm zinc sulfate only (samples 6-10) or sulfuric acid pH 1.2 or less
Experimental: as §6

Aerobic plate count [3] = settings: Example 3; for Aerobic plate count: drums dipped 10 s, drip 60 s, control 5.2
Experimental: (§1) Drums (poultry) were purchased from a local retailer, frozen, and thawed for testing. The parts were allowed to sit at room temperature for 24 hours prior to testing. As a control, five drums (Sample IDs 1-5) were individually, aseptically rinsed (100 ml of rinsate).
(§2) Next, approximately 630 mL of 3,000 ppm zinc sulfate was added and manually agitated in 1 gallon of tap water in a 3-gallon bucket to yield a 500 ppm zinc sulfate solution. Five drums (Sample IDs 6-10) were fully submerged in the zinc sulfate solution, manually agitated for 10 seconds, then removed and allowed to drip for 60 seconds. The drums were individually, aseptically rinsed.
(§3) Next, 1 gallon of water and 4 ml of sulfuric acid were added to a bucket to yield a solution having a pH of 1.2. Five drums (Sample IDs 11-15) were fully submerged in the sulfuric acid solution, manually agitated for 10 seconds, then removed and allowed to drip for 60 seconds. The drums were individually, aseptically rinsed.
(§4) Lastly, 1 gallon of water and 630 mL of 3,000 ppm zinc sulfate/sulfuric acid solution were added to a bucket to yield a 500 ppm zinc sulfate/sulfuric acid solution having a pH of 1.2. Five drums (Sample IDs 16-20) were fully submerged in the zinc sulfate/sulfuric acid solution, manually agitated for 10 seconds, then removed and allowed to drip for 60 seconds. The drums were individually, aseptically rinsed.
(§5) All rinsate samples collected were placed in a refrigerator overnight. The samples were analyzed for 3M Aerobic Plate Count (APC) Petrifilm™ (AOAC Official Method 990.12), E. coli/Coliform (EC/CO) Petrifilm™ (AOAC Official Method 998.08), and Enterobacteriaceae (EB) Petrifilm™ (AOAC Official Method 2003.01). The samples were recorded as counts, which were then converted to log10 CFU/mL for statistical analysis of the means.

Enterobacteriaceae [4] = settings: Example 3; for Enterobacteriaceae: drums dipped 10 s, drip 60 s, control 2.8
Experimental: as §1, §2, §3, §4, §5

Salmonella species = settings: ppm = mg of zinc per L of treatment solution; cited from earlier work
[5] = 1.2 pH sulfuric acid alone, Sample IDs 11-15
[6] = 500 ppm zinc sulfate alone, Sample IDs 6-10

| SMILES | Enterobacteriaceae, reduction from control (Enterobacteriaceae [1]; [5]) | Enterobacteriaceae (Enterobacteriaceae [1]; [5]) | EB analysis result versus control, in words (Enterobacteriaceae [1]) | Aerobic plate count, reduction from control (Aerobic plate count [2]; [5]) | Aerobic plate count (Aerobic plate count [2]; [5]) | APC result versus control, in words (Aerobic plate count [2]) | Aerobic plate count, reduction from control (Aerobic plate count [3]; [5]) | Aerobic plate count (Aerobic plate count [3]; [5]) | Enterobacteriaceae, reduction from control (Enterobacteriaceae [4]; [5]) | Enterobacteriaceae (Enterobacteriaceae [4]; [5]) | Enterobacteriaceae, reduction from control (Enterobacteriaceae [1]; [6]) | Enterobacteriaceae (Enterobacteriaceae [1]; [6]) | Aerobic plate count, reduction from control (Aerobic plate count [2]; [6]) | Aerobic plate count (Aerobic plate count [2]; [6]) | Aerobic plate count, reduction from control (Aerobic plate count [3]; [6]) | Aerobic plate count (Aerobic plate count [3]; [6]) | Enterobacteriaceae, reduction from control (Enterobacteriaceae [4]; [6]) | Enterobacteriaceae (Enterobacteriaceae [4]; [6]) | minimum inhibitory concentration (MIC) (Salmonella species) |
| --- | --- | --- | --- | --- | --- | --- | --- | --- | --- | --- | --- | --- | --- | --- | --- | --- | --- | --- | --- |
| O=S(=O)(O)O [sulfuric acid, reference compound] | 0.5 log10 CFU/ml | 4.4 log10 CFU/ml | statistically significant reductions | 0.7 log10 CFU/ml | 7.2 log10 CFU/ml | statistically significant reductions | 0.6 log10 CFU/ml | 4.6 log10 CFU/ml | 1.1 log10 CFU/ml | 1.7 log10 CFU/ml |  |  |  |  |  |  |  |  |  |
| O=S(=O)([O-])[O-].[Zn+2] [zinc sulfate] |  |  | statistically significant microbial reduction |  |  | statistically significant microbial reduction |  |  |  |  | 1.9 log10 CFU/ml | 3.3 log10 CFU/ml | 0.7 log10 CFU/ml | 7.2 log10 CFU/ml | 0.7 log10 CFU/ml | 4.5 log10 CFU/ml | 1.1 log10 CFU/ml | 1.7 log10 CFU/ml | about 0.25 ppm |
